# Patent US20070066608A1, “Novel indole derivatives with an improved antipsychotic activity” (priority 2003, published 2007)
# What was measured:
# [1] = molecular target: T1, Human Dopamine D2L receptor (Homo sapiens, UniProt P14416); test: Radioligand binding experiment for dopamine D2 receptor (hD2), [3H]Spiperone; settings: membranes of D2L receptor-transfected CHO cells, read-out: pIC50 D2 (converted)
# T1 construct: expressed in transfected cells; host or cells: CHO cells
# Description: (§1) The interaction of the compounds of Formula (I) with dopamine-receptors, h5HT-transporter and h5HT1A receptor was assessed in in vitro radioligand binding experiments. In general, a low concentration of a radioligand with a high binding affinity for a particular receptor or transporter is incubated with a sample of a tissue preparation enriched in a particular receptor or transporter or with a preparation of cells expressing cloned human receptors in a buffered medium. During the incubation, the radioligand binds to the receptor or transporter. When equilibrium of binding is reached, the receptor bound radioactivity is separated from the non-bound radioactivity, and the receptor- or transporter-bound activity is counted The interaction of the test compounds with the receptor is assessed in competition binding experiments. Various concentrations of the test compound are added to the incubation mixture containing the receptor- or transporter preparation and the radioligand. The test compound in proportion to its binding affinity and its concentration inhibits binding of the radioligand.
# Human Dopamine D2L receptor-transfected CHO cells were collected by scraping into ice-cold Tris-HCl buffer ([…], pH 7.4). The suspension was centrifuged (23 500×g, 10 min, 4° C.) and pellets stored at −70° C. until require. They were then thawed and briefly homogenised using an Ultra-Turrax T25 homogeniser prior to dilution to an appropriate protein concentration optimised for specific and non-specific binding. [^3H]Spiperone (NEN, specific activity˜70 Ci/mmol) was diluted in Tris-HCl assay buffer containing NaCl, CaCl2, MgCl2, KCI (50, 120, 2, 1, and 5 mM respectively, adjusted to pH 7.7 with HCl) at a concentration of 2 nmol/L. Prepared radioligand (50 μl) was then incubated (30 min, 37° C.) with membrane preparations pre-diluted to an appropriate protein concentration (400 μl), and with 50 μl of either the 10% DMSO control, Butaclamol (10^−6 mol/L final concentration), or compound of interest. Membrane-bound activity was detected by filtration through a Packard Filtermate harvester onto Unifilterplates, washing with ice-old Tris-HCl buffer (50 mM; pH8.0; 3×4 ml). Filters were allowed to dry before adding scintillation fluid and counting in a Topcount scintillation counter. % Specific bound and competition binding curves were calculated using S-Plus software (Insightful).
# [2] = molecular target: T2, Human Dopamine D4 receptor (Homo sapiens, UniProt P21917); test: Radioligand binding experiment for dopamine D4 receptor (hD4), [125I]Spiperone; settings: membranes of D4 receptor-transfected Sf9 cells, read-out: pIC50 D4 (converted)
# T2 construct: expressed in transfected cells; host or cells: Sf9 cells
# T2 sequence (P21917 1-419): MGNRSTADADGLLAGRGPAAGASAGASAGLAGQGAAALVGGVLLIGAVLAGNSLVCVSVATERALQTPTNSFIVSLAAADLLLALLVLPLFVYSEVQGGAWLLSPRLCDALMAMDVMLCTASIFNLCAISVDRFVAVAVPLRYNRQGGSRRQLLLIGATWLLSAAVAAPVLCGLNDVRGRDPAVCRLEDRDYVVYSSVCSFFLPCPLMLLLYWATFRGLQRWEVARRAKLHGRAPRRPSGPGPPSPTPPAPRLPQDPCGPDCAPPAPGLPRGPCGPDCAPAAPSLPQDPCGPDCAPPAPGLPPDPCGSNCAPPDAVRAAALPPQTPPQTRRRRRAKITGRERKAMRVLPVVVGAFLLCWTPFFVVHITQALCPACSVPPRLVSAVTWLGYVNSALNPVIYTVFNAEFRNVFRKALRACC
# Description: as §1, with “The test compound in proportion to its binding affinity and its concentration inhibits binding of the radioligand.” left out
# Human Dopamine D4 receptor-transfected Sf9 cells were collected by scraping into ice-cold Tris-HCl buffer (50 mM, pH 7.4). […] Filters were allowed to dry before adding scintillation fluid and counting in a Topcount scintillation counter. % Specific bound and competition binding curves were calculated using S-Plus software (Insightful).
# human 5HT transporter = molecular target: T3, human 5HT transporter (Homo sapiens, UniProt P31645); test: Binding experiment for 5-HT transporter, [3H]Paroxetine; settings: 5HT transporter-transfected HEK cells, [3H]Paroxetine binding; read-out: pIC50 5HT reuptake inhibition (converted)
# T3 construct: host or cells: HEK cells
# T3 sequence (P31645 whole entry): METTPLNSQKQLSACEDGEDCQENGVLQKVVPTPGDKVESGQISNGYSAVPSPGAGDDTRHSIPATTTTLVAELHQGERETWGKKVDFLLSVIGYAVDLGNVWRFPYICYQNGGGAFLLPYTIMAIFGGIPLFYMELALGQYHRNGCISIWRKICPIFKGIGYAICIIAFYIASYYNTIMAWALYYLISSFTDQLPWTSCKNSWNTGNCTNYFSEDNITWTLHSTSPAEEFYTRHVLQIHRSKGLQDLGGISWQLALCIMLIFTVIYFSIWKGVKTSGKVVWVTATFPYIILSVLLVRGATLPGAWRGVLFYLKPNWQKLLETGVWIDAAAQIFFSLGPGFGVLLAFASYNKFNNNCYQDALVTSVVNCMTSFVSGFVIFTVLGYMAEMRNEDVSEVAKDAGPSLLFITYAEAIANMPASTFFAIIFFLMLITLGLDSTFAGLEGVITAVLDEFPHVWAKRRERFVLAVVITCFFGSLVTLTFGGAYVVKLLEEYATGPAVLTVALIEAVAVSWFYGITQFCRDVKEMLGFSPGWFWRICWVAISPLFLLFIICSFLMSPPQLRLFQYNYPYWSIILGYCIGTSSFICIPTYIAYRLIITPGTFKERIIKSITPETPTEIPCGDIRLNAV
# Description: as §1
# Frozen human 5HT transporter-transfected HEK cells (Perkin Elmer, Brussels) were thawed and briefly homogenised using an Ultra-Turrax T25 homogeniser prior to dilution to an appropriate protein concentration optimised for specific and non-specific binding. [^3H]Paroxetine (NEN, specific activity 20 Ci/mmol) was diluted in Tris-HCl assay buffer containing NaCl and KCl (50 mM 120 mM and 5 mM, respectively; pH 7.4) at a concentration of 5 nmol/L. Prepared radioligand (25 μl) was then incubated (60 min, 25° C.) with membrane preparations (200 μl) and with 25 μl of either 10% DMSO control, Imipramine (10^−6 mol/L final concentration), or compound of interest Membrane-bound activity was detected by filtration through a Packard Filtermate harvester onto Unifilterplates pre-soaked in 0.1% PEI, washing with ice-cold assay buffer (3×4 ml). Filters were dried prior to addition of scintillation fluid and then counting in a Topcount scintillation counter. % Specific bound and competition binding curves were calculated using S-Plus software (Insightful).
# T1 sequence (P14416 whole entry): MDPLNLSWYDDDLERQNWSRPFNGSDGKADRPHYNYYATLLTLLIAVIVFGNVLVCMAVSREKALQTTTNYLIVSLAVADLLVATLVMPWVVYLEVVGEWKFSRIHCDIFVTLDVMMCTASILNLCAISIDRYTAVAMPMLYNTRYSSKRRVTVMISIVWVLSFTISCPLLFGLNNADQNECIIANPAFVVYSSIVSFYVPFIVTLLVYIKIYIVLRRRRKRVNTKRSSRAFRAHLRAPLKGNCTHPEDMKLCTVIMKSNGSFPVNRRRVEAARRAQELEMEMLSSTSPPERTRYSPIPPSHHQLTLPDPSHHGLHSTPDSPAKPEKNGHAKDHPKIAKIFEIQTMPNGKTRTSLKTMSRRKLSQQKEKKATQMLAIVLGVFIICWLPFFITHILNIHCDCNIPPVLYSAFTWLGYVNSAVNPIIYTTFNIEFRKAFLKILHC
smiles,measurement,setting,value
Fc1ccc2[nH]cc(C3=CCN(CC4Oc5cccnc5O4)CC3)c2c1 (stereo not drawn) [Compound 7],IC50,[1],251 nM
same,IC50,[2],501 nM
same,IC50,human 5HT transporter,> 1000 nM
